Changes are numbered by the printed parent chain.
Tests used:
[1] = biological target: T1, hEg5-367H (L214I) (Homo sapiens, UniProt P52732, L214I); test: ATP hydrolysis by Eg5 motor domain mutant L214I; assay type: biochemical; conditions: Figure 4B; legend: basal ATP hydrolysis; read-out: IC50(μM) of monastrol, (L214I)
T1 sequence (P52732 1-367 L214I): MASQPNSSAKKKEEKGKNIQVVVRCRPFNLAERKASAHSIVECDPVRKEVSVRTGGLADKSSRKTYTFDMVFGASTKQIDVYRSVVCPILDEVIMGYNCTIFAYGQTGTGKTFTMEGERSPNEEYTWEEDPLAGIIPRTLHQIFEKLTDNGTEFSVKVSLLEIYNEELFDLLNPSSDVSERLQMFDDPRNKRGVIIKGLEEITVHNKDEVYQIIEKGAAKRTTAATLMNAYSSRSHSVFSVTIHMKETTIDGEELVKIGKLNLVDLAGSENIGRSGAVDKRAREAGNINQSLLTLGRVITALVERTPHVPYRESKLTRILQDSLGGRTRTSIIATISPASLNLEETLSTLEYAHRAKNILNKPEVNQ
From the text: (§1) Figure 4 Mutagenesis of the monastrol binding site in human Eg5. (A) Design of mutations in the human Eg5 motor domain. Amino acid side chains that are not conserved between Eg5 and conventional kinesin were targeted, either introducing chimeric or rationally designed mutations (asterix for targeted point mutants) to test the contribution of residues to the drug-sensitivity of Eg5. (B) Steady-state enzymatic parameters for engineered human Eg5 motor domain mutants. Steady-state ATP hydrolysis by Eg5 was measured using an NADH-enzyme coupled assay varying the concentration of ATP, microtubules, or monastrol to obtain the microtubule concentration for half-maximal stimulation (K0.5MT), the maximal rate of microtubule-stimulated ATP hydrolysis (kcat), and the concentration of monastrol that inhibits basal ATP hydrolysis by 50 % (IC50), as described.
(§2) We used a modified PCR mutagenesis protocol to introduce mutations into hEg5-367H, a plasmid encoding the C-terminally His6-tagged motor domain (amino acid residues 1–367) of human Eg5. […]
(§3) ATP hydrolysis by recombinantly expressed kinesin motor domains was measured using an NADH-enzyme coupled assay. ATP hydrolysis was measured in KC25 buffer supplemented with 5 μM taxol, 1 mM ATP-KOH (pH 7.0), the appropriate concentration of motor domain, and the appropriate concentrations of taxol-polymerized microtubules.

[2] = biological target: T2, hEg5-367H (Y211M) (Homo sapiens, UniProt P52732, Y211M); test: ATP hydrolysis by Eg5 motor domain mutant Y211M; assay type: biochemical; conditions: Figure 4B; legend: basal ATP hydrolysis; read-out: IC50(μM) of monastrol, (Y211M)
T2 sequence (P52732 1-367 Y211M): T1 sequence (P52732 1-367 L214I) with Y211M, I214L
From the text: as §1, §2, §3

[3] = tested on: BS-C-1 cells; test: Monoaster formation in tissue culture cells (manual count of mitotic cells); assay type: cell-based, green monkey; conditions: Chlorocebus sabaeus, BSC-1, 6 h, read-out: Cells: monoaster formation score (drug concentration with roughly equal monastral and bipolar spindles)
Experimental: Figure 2 Structure-activity relationship of monastrol derivatives. (A) Scheme depicting the Biginelli condensation, a one-pot reaction for preparing monastrol derivatives. […] Each data point is the average of three independent experiments. […] Each cell-based assay was performed in duplicate.
(§4) Conditions for growing the following cell lines are as described: D. rerio AB9 (37), D. melanogaster KC167 [38], and BS-C-1 green monkey kidney cells. For immunofluorescence microscopy, cells were grown on 12 mm circular coverslips to 30 % confluence, treated medium supplemented with drug and 0.2% DMSO, or a DMSO alone, for 6 hours, fixed with formaldehyde, and stained for DNA and microtubules, as described. D. melanogaster KC167 cells were cultured in Schneider's Drosophila Medium (GIBCO) whereas D. rerio AB9 cells and BS-C-1 green monkey kidney cells were cultured at 37°C in Dulbecco's Minimal medium in the presence of 10 % heat inactivated fetal calf serum.

[4] = tested on: human Eg5; design: method as in PMID 10542155, PMID 10973989; conditions: cited from earlier work
[5] = tested on: AB9 cells; test: Spindle phenotype of D. rerio cells treated with monastrol; assay type: cell-based; conditions: data not shown
From the text: Monastrol binds a hydrophobic pocket between loop 5 and α3 that is poorly conserved among kinesins, resulting in specificity for vertebrate Eg5 homologs. […] Monastrol is known to inhibit human and Xenopus Eg5 [7, 9], but not BimC [27]. To test its effect on D. rerio Eg5 and Klp-61F, we treated AB9 and KC167 cells with monastrol. […] To obtain unambiguous evidence, we cloned the motor domain of Klp-61F and subjected the recombinant protein to ATPase assays in the presence or absence of microtubules.
as §4

[6] = tested on: BimC; design: method as in PMID 12525161; conditions: cited from earlier work
[7] = tested on: Xenopus Eg5; design: method as in PMID 10542155, PMID 10973989; conditions: cited from earlier work
[8] = biological target: T3, Klp61F-364H (Drosophila melanogaster, UniProt P46863); test: ATP hydrolysis by Klp-61F motor domain (NADH-enzyme coupled assay); assay type: biochemical, D. melanogaster
T3 construct: His6 (C); made in house; host or cells: vector pRSETa
T3 sequence (P46863 1-364): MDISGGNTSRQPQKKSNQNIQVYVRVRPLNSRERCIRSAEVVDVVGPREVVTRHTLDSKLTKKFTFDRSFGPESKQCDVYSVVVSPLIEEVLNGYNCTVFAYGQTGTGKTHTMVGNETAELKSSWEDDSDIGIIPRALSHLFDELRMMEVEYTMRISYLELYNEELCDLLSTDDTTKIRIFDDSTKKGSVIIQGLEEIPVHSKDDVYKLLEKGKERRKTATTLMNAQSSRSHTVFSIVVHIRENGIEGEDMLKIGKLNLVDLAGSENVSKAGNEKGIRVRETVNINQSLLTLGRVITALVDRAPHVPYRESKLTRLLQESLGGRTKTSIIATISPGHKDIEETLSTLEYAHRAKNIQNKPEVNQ
Experimental: Each data point is the average of three independent experiments.
as §3

Compound `CCOC(=O)C1=C(C)NC(=S)NC1c1cccc(O)c1` (centres unmarked) [Monastrol] has an IC50 [1] of 63 ± 7 µM, an IC50 [2] of 0.8 ± 0.3 µM and an EC50 [3] of under 50 µM. The “Inhibition of human Eg5” value [4] was “inhibit”, the “Effect on mitosis in D. rerio cells” value [5] was “mitotic arrest” and the “Inhibition of BimC” value [6] was “not”. For the same compound, the “Inhibition of Xenopus Eg5” value [7] was “inhibit” and the “Inhibition of microtubule-stimulated ATP hydrolysis by Klp-61F motor domain, in words” value [8] was “weakly inhibited”.
